Results taken from PubChem BioAssay (NCI).
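Results reflect a 48-hour exposure of cells in 96-well plates to compound at five concentrations. TGI denotes the concentration required for complete inhibition of growth.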

What was measured:
Assay in all cases: growth of human tumour cells (NCI), 48 h
[1] = system: OVCAR-3 ovarian
[2] = system: HCT-15 colon
[3] = system: HCT-116 colon
[4] = system: NCI-H522 lung
[5] = system: SNB-78 CNS
[6] = system: SF-539 CNS
[7] = system: RXF 393 renal
[8] = system: SNB-19 CNS
[9] = system: NCI-H460 lung
[10] = system: CCRF-CEM leukemia
[11] = system: SNB-75 CNS
[12] = system: HT29 colon
[13] = system: M19-MEL melanoma
[14] = system: DLD-1 colon
[15] = system: A549 NSCLC
[16] = system: UACC-257 melanoma
[17] = system: SR leukemia
[18] = system: OVCAR-4 ovarian
[19] = system: M14 melanoma
[20] = system: XF 498 CNS
[21] = system: A498 renal
[22] = system: HCC-2998 colon
[23] = system: SN12C renal
[24] = system: DMS 273 small cell lung
[25] = system: SK-OV-3 ovarian
[26] = system: U251 CNS
[27] = system: SF-268 CNS
[28] = system: K-562 leukemia
[29] = system: MOLT-4 leukemia
[30] = system: OVCAR-8 ovarian
[31] = system: IGROV1 ovarian
[32] = system: KM20L2 colon
[33] = system: ACHN renal
[34] = system: HOP-92 NSCLC
[35] = system: SW-620 colon
[36] = system: HOP-62 NSCLC
[37] = system: UACC-62 melanoma
[38] = system: OVCAR-5 ovarian
[39] = system: SF-295 CNS
[40] = system: RXF-631 renal
[41] = system: SK-MEL-5 melanoma
[42] = system: SK-MEL-28 melanoma
[43] = system: DMS 114 small cell lung
[44] = system: TK-10 renal
[45] = system: RPMI-8226 leukemia
[46] = system: HOP-18 NSCLC
[47] = system: 786-0 renal
[48] = system: KM12 colon
[49] = system: CAKI-1 renal
[50] = system: EKVX NSCLC
[51] = system: NCI-H23 lung
[52] = system: UO-31 renal
[53] = system: COLO 205 colon
[54] = system: LXFL 529 NSCLC
[55] = system: MALME-3M melanoma
[56] = system: LOX IMVI melanoma
[57] = system: SK-MEL-2 melanoma
[58] = system: HL-60(TB) leukemia
[59] = system: NCI-H226 lung

SMILES: O=C(CN1CCN(c2cccc(Cl)c2)CC1)N1CCc2c([nH]c3ccccc23)C1c1cccnc1 (stereo unspecified)
- TGI [1]: 42.2 µM
- TGI [2]: > 100 µM
- TGI [3]: 17 µM
- TGI [4]: 48.6 µM
- TGI [5]: > 100 µM
- TGI [6]: 42.3 µM
- TGI [7]: 14.8 µM
- TGI [8]: > 100 µM
- TGI [9]: 33.1 µM
- TGI [10]: 17.8 µM
- TGI [11]: 26.6 µM
- TGI [12]: 15.9 µM
- TGI [13]: 68.6 µM
- TGI [14]: > 100 µM
- TGI [15]: > 100 µM
- TGI [16]: 35.4 µM
- TGI [17]: 7.19 µM
- TGI [18]: 75.7 µM
- TGI [19]: 19.4 µM
- TGI [20]: 35.9 µM
- TGI [21]: 67.9 µM
- TGI [22]: 21.6 µM
- TGI [23]: > 100 µM
- TGI [24]: 84.5 µM
- TGI [25]: > 100 µM
- TGI [26]: 48.8 µM
- TGI [27]: > 100 µM
- TGI [28]: 17.8 µM
- TGI [29]: 6.94 µM
- TGI [30]: > 100 µM
- TGI [31]: > 100 µM
- TGI [32]: 11.7 µM
- TGI [33]: > 100 µM
- TGI [34]: 42 µM
- TGI [35]: 52 µM
- TGI [36]: 63.9 µM
- TGI [37]: 39.3 µM
- TGI [38]: 45.2 µM
- TGI [39]: 50.8 µM
- TGI [40]: 40.4 µM
- TGI [41]: 32.6 µM
- TGI [42]: > 100 µM
- TGI [43]: 39.4 µM
- TGI [44]: > 100 µM
- TGI [45]: 5.26 µM
- TGI [46]: 97.8 µM
- TGI [47]: 44.3 µM
- TGI [48]: 20.2 µM
- TGI [49]: 54.7 µM
- TGI [50]: 94.1 µM
- TGI [51]: 50.3 µM
- TGI [52]: 57.7 µM

SMILES: CC1=C(C(=O)CC(=O)C(=O)Nc2ccc(Cl)cc2C)Sc2ccccc2N1
- TGI [1]: > 100 µM
- TGI [53]: > 100 µM
- TGI [2]: > 100 µM
- TGI [3]: > 100 µM
- TGI [4]: > 100 µM
- TGI [5]: > 100 µM
- TGI [6]: > 100 µM
- TGI [7]: > 100 µM
- TGI [8]: > 100 µM
- TGI [9]: > 100 µM
- TGI [10]: > 100 µM
- TGI [11]: > 100 µM
- TGI [12]: > 100 µM
- TGI [13]: > 100 µM
- TGI [14]: > 100 µM
- TGI [15]: > 100 µM
- TGI [16]: > 100 µM
- TGI [18]: > 100 µM
- TGI [19]: > 100 µM
- TGI [20]: > 100 µM
- TGI [21]: > 100 µM
- TGI [22]: > 100 µM
- TGI [23]: > 100 µM
- TGI [24]: > 100 µM
- TGI [25]: > 100 µM
- TGI [26]: > 100 µM
- TGI [27]: > 100 µM
- TGI [28]: > 100 µM
- TGI [29]: > 77.1 µM
- TGI [30]: > 100 µM
- TGI [31]: > 100 µM
- TGI [32]: > 100 µM
- TGI [33]: > 100 µM
- TGI [34]: 74.7 µM
- TGI [35]: > 100 µM
- TGI [36]: > 100 µM
- TGI [37]: > 100 µM
- TGI [38]: > 100 µM
- TGI [39]: > 100 µM
- TGI [40]: > 100 µM
- TGI [54]: > 100 µM
- TGI [41]: > 100 µM
- TGI [42]: > 100 µM
- TGI [55]: > 100 µM
- TGI [43]: > 100 µM
- TGI [56]: > 100 µM
- TGI [44]: > 100 µM
- TGI [45]: > 100 µM
- TGI [57]: > 100 µM
- TGI [46]: > 100 µM
- TGI [47]: > 100 µM
- TGI [58]: > 100 µM
- TGI [48]: > 100 µM
- TGI [49]: > 100 µM
- TGI [50]: > 100 µM
- TGI [51]: > 100 µM
- TGI [52]: > 100 µM

SMILES: O=[N+]([O-])c1nccn1COCCO
- TGI [53]: > 100 µM
- TGI [2]: > 100 µM
- TGI [3]: > 100 µM
- TGI [4]: > 100 µM
- TGI [5]: > 100 µM
- TGI [7]: > 100 µM
- TGI [8]: > 100 µM
- TGI [9]: > 100 µM
- TGI [10]: > 100 µM
- TGI [11]: > 100 µM
- TGI [12]: > 100 µM
- TGI [59]: > 100 µM
- TGI [14]: > 100 µM
- TGI [15]: > 100 µM
- TGI [16]: > 100 µM
- TGI [17]: > 100 µM
- TGI [18]: > 100 µM
- TGI [19]: > 100 µM
- TGI [20]: > 100 µM
- TGI [21]: > 100 µM
- TGI [22]: > 100 µM
- TGI [23]: > 100 µM
- TGI [24]: > 100 µM
- TGI [25]: > 100 µM
- TGI [26]: > 100 µM
- TGI [27]: > 100 µM
- TGI [29]: > 100 µM
- TGI [32]: > 100 µM
- TGI [33]: > 100 µM
- TGI [34]: > 100 µM
- TGI [35]: > 100 µM
- TGI [36]: > 100 µM
- TGI [38]: > 100 µM
- TGI [39]: > 100 µM
- TGI [40]: > 100 µM
- TGI [54]: > 100 µM
- TGI [41]: > 100 µM
- TGI [42]: > 100 µM
- TGI [55]: > 100 µM
- TGI [43]: > 100 µM
- TGI [56]: > 100 µM
- TGI [44]: > 100 µM
- TGI [45]: > 100 µM
- TGI [57]: > 100 µM
- TGI [46]: 97.8 µM
- TGI [47]: > 100 µM
- TGI [58]: > 100 µM
- TGI [48]: > 100 µM
- TGI [49]: > 100 µM
- TGI [51]: > 100 µM

SMILES: CSc1cc(-c2cc3ccccc3o2)oc(=O)c1C#N
- TGI [53]: > 100 µM
- TGI [2]: > 100 µM
- TGI [3]: > 100 µM
- TGI [5]: > 100 µM
- TGI [6]: > 100 µM
- TGI [7]: > 100 µM
- TGI [8]: > 100 µM
- TGI [9]: > 100 µM
- TGI [10]: > 100 µM
- TGI [11]: > 100 µM
- TGI [12]: > 100 µM
- TGI [59]: 4.31 µM
- TGI [14]: > 100 µM
- TGI [15]: > 100 µM
- TGI [16]: > 100 µM
- TGI [17]: 50 µM
- TGI [18]: > 100 µM
- TGI [19]: > 100 µM
- TGI [20]: > 100 µM
- TGI [21]: > 100 µM
- TGI [22]: > 100 µM
- TGI [23]: > 100 µM
- TGI [24]: > 100 µM
- TGI [26]: > 100 µM
- TGI [27]: > 100 µM
- TGI [28]: > 100 µM
- TGI [29]: > 100 µM
- TGI [30]: > 100 µM
- TGI [31]: > 100 µM
- TGI [32]: > 100 µM
- TGI [33]: > 100 µM
- TGI [34]: 2.33 µM
- TGI [35]: > 100 µM
- TGI [38]: > 100 µM
- TGI [39]: > 100 µM
- TGI [40]: > 100 µM
- TGI [54]: > 100 µM
- TGI [41]: > 100 µM
- TGI [42]: > 100 µM
- TGI [55]: > 100 µM
- TGI [43]: > 100 µM
- TGI [56]: > 100 µM
- TGI [44]: 73.4 µM
- TGI [45]: > 100 µM
- TGI [57]: > 100 µM
- TGI [46]: > 100 µM
- TGI [58]: > 100 µM
- TGI [48]: > 100 µM
- TGI [49]: > 100 µM
- TGI [50]: > 100 µM
- TGI [51]: > 100 µM
- TGI [52]: > 100 µM
